In patent US20050004134A1, “Thiazole derivative and pharmaceutical use thereof” (priority 2001, published 2005) one finds melting point data, which are given here for 37 compounds.

In general, melting point refers to the temperature of the solid-liquid transition.

Take `CC(C)n1nc(-c2sc(NC(=O)c3ccc(CNCCN4CCCCC4)cc3)nc2-c2ccccc2)ccc1=O` [Example 144, N-[5-(1-Isopropyl-6-oxo-1,6-dihydro-3-pyridazinyl)-4-phenyl-1,3-thiazol-2-yl]-4-({[2-(1-piperidinyl)ethyl]amino}methyl)benzamide]: the melting point is 134 to 136 °C.

`CC(C)n1nc(-c2sc(NC(=O)c3cc(C(F)(F)F)cc(C(F)(F)F)c3)nc2-c2ccccc2)ccc1=O` [Example 44, N-[5-(1-Isopropyl-6-oxo-1,6-dihydro-3-pyridazinyl)-4-phenyl-1,3-thiazol-2-yl]-3,5-bis(trifluoromethyl)benzamide]: the melting point was 207 to 208 °C.

For `CCOCCNCc1ccc(C(=O)Nc2nc(-c3ccccc3)c(-c3ccc(=O)n(C(C)C)n3)s2)cc1` [Example 145, 4-{[(2-Ethoxyethyl)amino]methyl}-N-[5-(1-isopropyl-6-oxo-1,6-dihydro-3-pyridazinyl)-4-phenyl-1,3-thiazol-2-yl]benzamide], the melting point lay within 153 to 154 °C.

With `CC(C)n1nc(-c2sc(NC3CCCCC3)nc2-c2ccccc2)ccc1=O` [Example 70, 6-[2-(Cyclohexylamino)-4-phenyl-1,3-thiazol-5-yl]-2-isopropyl-3(2H)-pyridazinone], the melting point was 149 to 151 °C.

In the case of `CC(C)n1nc(-c2sc(NC(=O)c3ccc(CN4CCN(C)CC4)cc3)nc2-c2ccccc2)ccc1=O` [Example 97, N-(5-(1-Isopropyl-6-oxo-1,6-dihydro-3-pyridazinyl)-4-phenyl-1,3-thiazol-2-yl]-4-[(4-methyl-1-piperazinyl)methyl]benzamide], the melting point fell in the range of 224 to 227 °C.

`CC(C)n1nc(-c2sc(C(=O)NCC(N)=O)nc2-c2ccccc2)ccc1=O` [Example 222, N-(2-amino-2-oxoethyl)-5-(1-isopropyl-6-oxo-1,6-dihydro-3-pyridazinyl)-4-phenyl-1,3-thiazole-2-carboxamide] came in with a melting point of 247.5 to 249 °C.

In turn, `CC(C)n1nc(-c2sc(NCCCN3CCOCC3)nc2-c2ccccc2)ccc1=O.Cl.Cl` came in with a melting point of 150 to 153 °C.

Compound `CC(C)n1nc(-c2sc(C(=O)NC3CC3)nc2-c2cccc(F)c2)ccc1=O` [Example 197, N-cyclopropyl-4-(3-fluorophenyl)-5-(1-isopropyl-6-oxo-1,6-dihydro-3-pyridazinyl)-1,3-thiazole-2-carboxamide] came in with a melting point of 145.5 to 147 °C.

Take `CCCn1nc(-c2sc(C(=O)NC(C)C)nc2-c2ccccc2)ccc1=O` [Example 179, N-isopropyl-5-(6-oxo-1-propyl-1,6-dihydro-3-pyridazinyl)-4-phenyl-1,3-thiazole-2-carboxamide]: the melting point lay in the range of 146.5 to 147.5 °C.

For `CC(C)n1nc(-c2sc(C(=O)NCc3ccccn3)nc2-c2ccc(F)cc2)ccc1=O` [Example 211, 4-(4-Fluorophenyl)-5-(1-isopropyl-6-oxo-1,6-dihydro-3-pyridazinyl)-N-(2-pyridinylmethyl)-1,3-thiazole-2-carboxamide], the melting point lay within 203.5 to 205 °C.

For the compound `CC(C)n1nc(-c2sc(NC(=O)c3ccc(CN(C)C)cc3)nc2-c2ccccc2)ccc1=O` [Example 28, 4-[(Dimethylamino)methyl]-N-[5-(1-isopropyl-6-oxo-1,6-dihydro-3-pyridazinyl)-4-phenyl-1,3-thiazol-2-yl]benzamide], the melting point lay within 246 to 248 °C.

`CC(C)n1nc(-c2sc(C(=O)N3CCN(Cc4ccccc4)CC3)nc2-c2ccccc2)ccc1=O` [Example 229, 6-{2-[(4-Benzyl-1-piperazinyl)carbonyl]-4-phenyl-1,3-thiazol-5-yl}-2-isopropyl-3(2H)-pyridazinone] yielded a melting point of 181 to 182 °C.

Turning to `CC(C)n1nc(-c2sc(NC(=O)CNC3CC3)nc2-c2ccccc2)ccc1=O.Cl`, the melting point is 123 to 125 °C.

Regarding `CC(C)n1nc(-c2sc(NC(=O)CNCCN3CCCCC3)nc2-c2ccccc2)ccc1=O.Cl.Cl`, the melting point was above 250 °C.

As for `CC(C)n1nc(-c2sc(NC(=O)c3cccc4ccccc34)nc2-c2ccccc2)ccc1=O` [Example 31, N-[5-(1-Isopropyl-6-oxo-1,6-dihydro-3-pyridazinyl)-4-phenyl-1,3-thiazol-2-yl]-1-naphthamide], the melting point lay in the range of 223 to 224 °C.

In turn, `CC(C)n1nc(-c2sc(NC(=O)c3ccc(Cl)cc3)nc2-c2ccccc2)ccc1=O` [Example 47, 4-Chloro-N-[5-(1-isopropyl-6-oxo-1,6-dihydro-3-pyridazinyl)-4-phenyl-1,3-thiazol-2-yl]benzamide] displayed a melting point of 205 to 206 °C.

For `CC(C)NC(=O)c1nc(-c2ccccc2F)c(-c2ccc(=O)n(C(C)C)n2)s1` [Example 184, 4-(2-fluorophenyl)-N-isopropyl-5-(1-isopropyl-6-oxo-1,6-dihydro-3-pyridazinyl)-1,3-thiazole-2-carboxamide], the melting point lay in the range of 129 to 130.5 °C.

For the compound `CC(C)n1nc(-c2sc(NC(=O)CNCCN3CCOCC3)nc2-c2ccccc2)ccc1=O.Cl.Cl`, the melting point was 250 to 252 °C.

In turn, `Br.CNc1nc(-c2ccccc2)c(-c2ccc(=O)n(C(C)C)n2)s1` displayed a melting point of 226 to 228 °C.

Consider `CC(C)n1nc(-c2sc(NC(=O)c3ccc(CN(C)CCc4ccccn4)cc3)nc2-c2ccccc2)ccc1=O` [Example 147, N-[5-(1-Isopropyl-6-oxo-1,6-dihydro-3-pyridazinyl)-4-phenyl-1,3-thiazol-2-yl]-4-({methyl[2-(2-pyridinyl)ethyl]amino}methyl)benzamide], for which the melting point is 172 to 174 °C.

As for `CC(C)n1nc(-c2sc(NCCN3CCCCC3)nc2-c2ccccc2)ccc1=O` [Example 74, 2-Isopropyl-6-(4-phenyl-2-{[2-(1-piperidinyl)ethyl]amino}-1,3-thiazol-5-yl)-3(2H)-pyridazinone], the melting point was in the range of 165 to 166 °C.

In the case of `CC(C)n1nc(-c2sc(NC(=O)CN(C)CCN(C)C)nc2-c2ccccc2)ccc1=O` [Example 118, 2-[(2-(Dimethylamino)ethyl)(methyl)amino]-N-[5-(1-isopropyl-6-oxo-1,6-dihydro-3-pyridazinyl)-4-phenyl-1,3-thiazol-2-yl]acetamide], the melting point was 155 to 157 °C.

As to `CCN(CC)CCNCC(=O)Nc1nc(-c2ccccc2)c(-c2ccc(=O)n(C(C)C)n2)s1.Cl.Cl`, the melting point fell in the range of 157 to 159 °C.

Turning to `CC(C)n1nc(-c2sc(N)nc2-c2ccccc2)ccc1=O` [Example 1, 6-(2-amino-4-phenyl-1,3-thiazol-5-yl)-2-isopropyl-3(2H)-pyridazinone], the melting point was above 250 °C.

With `COCCNCCC(=O)Nc1nc(-c2ccccc2)c(-c2ccc(=O)n(C(C)C)n2)s1` [Example 122, N-[5-(1-Isopropyl-6-oxo-1,6-dihydro-3-pyridazinyl)-4-phenyl-1,3-thiazol-2-Yl]-3-[(2-methoxyethyl)amino]propanamide], the melting point lay within 167 to 168 °C.

For `CC(C)n1nc(-c2sc(NC(=O)c3cccc(Cl)c3)nc2-c2ccccc2)ccc1=O` [Example 35, 3-Chloro-N-[5-(1-isopropyl-6-oxo-1,6-dihydro-3-pyridazinyl)-4-phenyl-1,3-thiazol-2-yl]benzamide], the melting point fell in the range of 173 to 174 °C.

For `CC(C)n1nc(-c2sc(C(=O)N3CCCCC3)nc2-c2ccccc2)ccc1=O` [Example 218, 2-Isopropyl-6-[4-phenyl-2-(1-piperidinylcarbonyl)-1,3-thiazol-5-yl]-3(2H)-pyridazinone], the melting point was in the range of 111 to 112 °C.

The compound `CC(C)n1nc(-c2sc(NC(=O)Cc3ccccc3)nc2-c2ccccc2)ccc1=O` [Example 4, N-[5-(1-Isopropyl-6-oxo-1,6-dihydro-3-pyridazinyl)-4-phenyl-1,3-thiazol-2-yl]-2-phenylacetamide] registered a melting point of 250 to 252 °C.

`CC(C)n1nc(-c2sc(C(=O)NCc3ccccn3)nc2-c2cccc(F)c2)ccc1=O` [Example 208, 4-(3-Fluorophenyl)-5-(1-isopropyl-6-oxo-1,6-dihydro-3-pyridazinyl)-N-(2-pyridinylmethyl)-1,3-thiazole-2-carboxamide]: the melting point is 188 to 189.5 °C.

`CC(C)n1nc(-c2sc(C(=O)N3CCN(C)CC3)nc2-c2ccccc2)ccc1=O` [Example 228, 2-Isopropyl-6-{2-[(4-methyl-1-piperazinyl)carbonyl]-4-phenyl-1,3-thiazol-5-yl)-3(2H)-pyridazinone]: the melting point was in the range of 155 to 156.5 °C.

For the compound `Nc1nc(-c2ccccc2)c(-c2ccc(=O)[nH]n2)s1` [Example 84, 6-(2-amino-4-phenyl-1,3-thiazol-5-yl)-3(2H)-pyridazinone], the melting point is above 250 °C.

`CCCn1nc(-c2sc(C(=O)NC3CC3)nc2-c2ccccc2)ccc1=O` [Example 191, N-cyclopropyl-5-(6-oxo-1-propyl-1,6-dihydro-3-pyridazinyl)-4-phenyl-1,3-thiazole-2-carboxamide]: the melting point was 146 to 147 °C.

The compound `CC(C)n1nc(-c2sc(C(=O)NN(C)C)nc2-c2ccc(F)cc2)ccc1=O` [Example 239, 4-(4-Fluorophenyl)-5-(1-isopropyl-6-oxo-1,6-dihydro-3-pyridazinyl)-N′,N′-dimethyl-1,3-thiazole-2-carbohydrazide] showed a melting point of 169 to 170.5 °C.

Regarding `CC(C)NC(=O)c1nc(-c2cccc(F)c2)c(-c2ccc(=O)n(C(C)C)n2)s1` [Example 185, 4-(3-fluorophenyl)-N-isopropyl-5-(1-isopropyl-6-oxo-1,6-dihydro-3-pyridazinyl)-1,3-thiazole-2-carboxamide], the melting point lay in the range of 103.5 to 105.5 °C.

Compound `CC(C)NCC(=O)Nc1nc(-c2ccccc2)c(-c2ccc(=O)n(C(C)C)n2)s1.Cl` displayed a melting point above 250 °C.

Compound `CC(C)Nc1nc(-c2ccccc2)c(-c2ccc(=O)n(C(C)C)n2)s1` [Example 64, 2-Isopropyl-6-[2-(isopropylamino)-4-phenyl-1,3-thiazol-5-yl]-3(2H)-pyridazinone] returned a melting point of 138 to 139 °C.

`CC(C)n1nc(-c2sc(NC(=O)c3cccc(C(F)(F)F)c3)nc2-c2ccccc2)ccc1=O` [Example 38, N-[5-(1-Isopropyl-6-oxo-1,6-dihydro-3-pyridazinyl)-4-phenyl-1,3-thiazol-2-yl]-3-(trifluoromethyl)benzamide] yielded a melting point of 237 to 238 °C.
